Results on eight compounds are retold here after US20260234165A1, “MACROCYCLIC COMPOUNDS, PREPARATION METHOD THEREFOR, AND USE THEREOF” (GENFLEET THERAPEUTICS (SHANGHAI) INC., priority 2004, published 2026).

A short description of data set [1]: Assay for stability in liver microsomes. It counts as in vitro ADME. To be noted: human liver microsomes. As for the experimental part:
This experiment was intended to investigate the metabolic stability of the test compounds in human liver microsomes. The materials used in the experiment included 10 mM solutions of the test compounds and the control sample, human liver microsomes, and reduced nicotinamide adenine dinucleotide phosphate (NADPH) powder. In the experiment, a 100 mM potassium phosphate buffer was used as the buffer system.
The liver microsome working solution was prepared by diluting the liver microsome stock solution to 0.75 mg/mL using the 100 mM potassium phosphate buffer. Then, 5 μL of the 10 mM stock solution of the test compound was taken, and 195 μL of methanol was added. The mixture was well mixed to prepare a working solution A with a concentration of 0.25 mM.
Subsequently, the working solution A was diluted to 1.5 μM using the liver microsome working solution to prepare a compound-liver microsome mixed solution. Additionally, NADPH powder was dissolved in a 100) mM potassium phosphate buffer to prepare a 6 mM NADPH solution. The compound-liver microsome mixed solution was dispensed into a 96-well plate at 30 μL/well, with labeled time points of 0 min, 30 min, and 60 min. For 0-min samples, 180 μL of acetonitrile containing 100 ng/mL tolbutamide and 15 μL of the NADPH solution were added directly. The 96-well plate and the NADPH solution were then preheated under a 37° C. water bath for 5 min. After the preheating, 15 μL of the NADPH solution was added to each of the 30-min and 60-min sample wells. The plate was gently shaken for mixing and then incubated under the 37° C. water bath for the corresponding time. After the incubation was completed. 180 μL of acetonitrile containing 100 ng/mL tolbutamide was added to each sample well. The plate was sealed with a sealing film, shaken for 10 min (800 rpm/min), and then centrifuged for 15 min (4000 rpm). After the centrifugation, 50 μL of the supernatant was taken and added to a 96-well plate containing 150 μL of deionized water, and then the plate was sealed and shaken for 10 min (800 rpm) for uniform mixing. Subsequently sample analysis was performed using liquid chromatography-tandem mass spectrometry (LC-MS/MS).
The elimination rate constant and clearance rate of the test compound in liver microsomes were calculated using the following formulas: Remaining rate (%)=(peak area ratio of the compound to internal standard at any time point/peak area ratio of the compound to internal standard at 0 min)×100%,^4. T1/2=0.693/ke, where ke is the elimination rate constant and T1/2 is the half-life. Liver microsome intrinsic clearance rate (CLint(mic))=0.693/(T1/2× microsome protein concentration (mg/mL)). Liver intrinsic clearance rate (CLint(liver))=CLint(mic)×microsome protein-to-liver weight ratio (mg/g)×liver-to-body weight ratio (g/kg). In the formulas, CLint(mic) is the liver microsome intrinsic clearance rate, CLint(liver) is the liver intrinsic clearance rate, and CL(liver) is the liver clearance rate. For humans, the microsome protein-to-liver weight ratio was 45 mg/g, and the liver-to-body weight ratio was 20.7 g/kg.
Background: Liver microsomes are a subcellular fraction often used to study metabolism.

Data set [2] concerns p-ERK in AsPC-1 cells (KRAS G12D mutation). Briefly: Cell p-ERK assay (HTRF) in AsPC-1 cells. Particulars: AsPC-1 cells, 3 h compound incubation, HTRF p-ERK T202/Y204, read-out: AsPC-1 p-ERK IC50. The class given is cell-based, human. Summed up: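 IC50 values derive from four-parameter fitting of p-ERK (T202/Y204) HTRF inhibition, normalized to DMSO and blank controls. The lysates came from cells exposed for 3 h to serial 3.16-fold compound dilutions at 0.1% DMSO, after overnight plating at 10000 AsPC-1 or 20000 NCI-H441 cells per well.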
(In general: TR-FRET usually uses a lanthanide donor and a delayed reading to cut background.)

Like-named read-outs stand apart in the source and are kept apart here.

As a reminder, the IC50 is the point on the concentration scale where inhibition reaches its midpoint. As for `CCn1c(-c2cc(C#CCN3CCCOCC3)cnc2C(C)C)c2c3cc(ccc31)-c1csc(n1)C[C@H](NC(=O)[C@H]1[C@H](C)[C@@H]1C)C(=O)N1CCC[C@H](N1)C(=O)OCC(C)(C)C2` (atropisomer, axis not shown; (Sa)) [Compound Z811-2, (1r,2R,3S)—N-((6^3S,4S,Z)—(Sa)-1-(5-(3-(1,4-oxazepan-4-yl)prop-1-yn-1-yl)-2-isopropylpyridin-3-yl)-1^1-ethyl-10,10-dimethyl-5,7-dioxo-6^1,6^2,6^3,6^4,6^5,6^6-hexahydro-1^1H-8-oxa-2(4,2)-thiazola-1(5,3)-indola-6(1,3)-pyridazinacycloundecaphane-4-yl)-2,3-dimethylcyclopropane-1-carboxamide], in data set [1] (NADPH, 37° C., 0/30/60 min), the “T1/2” value is reported as 38.9 min. In addition, the “CLint(liver)” value in data set [1] (liver intrinsic clearance rate) worked out at 41.2 mL/min/kg. The IC50 in data set [2] was found to be 0.58 nM.

The half-life is the time needed for the level to fall by half in the phase considered. The term CLint scaled denotes a measure of how fast metabolising enzymes remove a compound, apart from limits set by blood flow. `CCn1c(-c2cc(N3CCN4CC5(CC5)OC[C@@H]4C3)cnc2[C@H](C)OC)c2c3cc(ccc31)-c1csc(n1)C[C@H](NC(=O)[C@H]1[C@H](C)[C@@H]1C)C(=O)N1CCC[C@H](N1)C(=O)OCC1(CC1)C2` (atropisomer, axis not shown; (Ra)) [Compound Z13] returned a half-life at 1 µM in data set [1] (NADPH, 37° C., 0/30/60 min) of 36.7 min. The compound also gave a CLint scaled at 1 µM in data set [1] (liver intrinsic clearance rate) of 43.7 mL/min/kg. Further, in data set [2] (Homo sapiens, ASPC1, 3 h), the IC50 came out at 2.24 nM.

For the compound `CCn1c(-c2cc(C#CCN3CCS(=O)(=O)CC3)cnc2[C@H](C)OC)c2c3cc(ccc31)-c1csc(n1)C[C@H](Nc1nnc3cc(C)ccn13)C(=O)N1CCC[C@H](N1)C(=O)OCC(C)(C)C2` (atropisomer, axis not shown; (Ra)) [Compound Z911, (6^3S,4S,Z)—(Ra)-1^2-(5-(3-(1,1-dioxidothiomorpholino)prop-1-yn-1-yl)-2-((S)-1-methoxyethyl)pyridin-3-yl)-1^1-ethyl-10,10-dimethyl-4-((7-methyl-[1,2,4]triazolo[4,3-a]pyridin-3-yl)amino)-6^1,6^2,6^3,6^4,6^5,6^6-hexahydro-1^1H-8-oxa-2(4,2)-thiazola-1(5,3)-indola-6(1.3)-pyridazinacycloundecaphane-5,7-dione], the half-life at 1 µM in data set [1] (NADPH, 37° C., 0/30/60 min) came to 36 min. In addition, the CLint scaled at 1 µM in data set [1] (liver intrinsic clearance rate) worked out at 44.5 mL/min/kg. For the same compound, the IC50 in data set [2] (Homo sapiens, ASPC1, 3 h) was 2.23 nM.

Take `CCn1c(-c2cc(C#CCN3CCCN(C)CC3)cnc2[C@H](C)OC)c2c3cc(ccc31)-c1csc(n1)C[C@H](NC(=O)[C@H]1[C@H](C)[C@@H]1C)C(=O)N1CCC[C@H](N1)C(=O)OCC(C)(C)C2` (atropisomer, axis not shown; (Ra)) [Compound Z802, (1r,2R,3S)—N-((6^3S,4S,Z)-1^2-(5-(3-(4-methyl-1,4-diaza-1-yl)prop-1-yn-1-yl)-(Ra)-2-((S)-1-methoxyethyl)pyridin-3-yl)-1^1-ethyl-10,10-dimethyl-5,7-dioxo-6^1,6^2,6^3,6^4,6^5,6^6-hexahydro-1^1H-8-oxa-2(4,2)-thiazola-1(5,3)-indola-6(1,3)-pyridazinacycloundecaphane-4-yl)-2,3-dimethylcyclopropane-1-carboxamide]: the half-life at 1 µM in data set [1] (NADPH, 37° C., 0/30/60 min) came out at 98.7 min. The same compound displayed a CLint scaled at 1 µM in data set [1] (liver intrinsic clearance rate) of 16.2 mL/min/kg. Moreover, in data set [2] (Homo sapiens, ASPC1, 3 h), the IC50 came out at 0.2 nM.

Compound `CCn1c(-c2cc(C#CCN3CCC(C(F)(F)F)CC3)cnc2[C@H](C)OC)c2c3cc(ccc31)-c1csc(n1)C[C@H](NC(=O)[C@H]1[C@H](C)[C@@H]1C)C(=O)N1CCC[C@H](N1)C(=O)OCC(C)(C)C2` (atropisomer, axis not shown; (Ra)) [Compound Z778] had a half-life at 1 µM in data set [1] (NADPH, 37° C., 0/30/60 min) of 50.3 min. In addition, in data set [1] (liver intrinsic clearance rate), the CLint scaled at 1 µM was 31.9 mL/min/kg. For the same compound, the IC50 in data set [2] (Homo sapiens, ASPC1, 3 h) was found to be 1.53 nM.

The compound `CCn1c(-c2cc(N3CCN(CCS(C)(=O)=O)CC3)cnc2[C@H](C)OC)c2c3cc(ccc31)-c1csc(n1)C[C@H](NC(=O)[C@H]1[C@H](C)[C@@H]1C)C(=O)N1CCC[C@H](N1)C(=O)OCC1(CC1)C2` (single isomer, unassigned) [Compound Z367] showed a half-life at 1 µM in data set [1] (NADPH, 37° C., 0/30/60 min) of 48.2 min. Further, the CLint scaled at 1 µM in data set [1] (liver intrinsic clearance rate) was 33.2 mL/min/kg. For the same compound, the IC50 in data set [2] (Homo sapiens, ASPC1, 3 h) amounted to 7.29 nM.

`CCO[C@@H](C)c1ncc(N2CCN(CCS(C)(=O)=O)CC2)cc1-c1c2c3cc(ccc3n1CC)-c1csc(n1)C[C@H](NC(=O)[C@H]1[C@H](C)[C@@H]1C)C(=O)N1CCC[C@H](N1)C(=O)OCC1(CC1)C2` (single isomer, unassigned) [Compound Z378-1]: in data set [1] (NADPH, 37° C., 0/30/60 min), the half-life at 1 µM stood at 64.2 min. In data set [1] (liver intrinsic clearance rate), this compound gave a CLint scaled at 1 µM of 25 mL/min/kg. For the same compound, in data set [2] (Homo sapiens, ASPC1, 3 h), the IC50 amounted to 10.6 nM.

`CCn1c(-c2cc(C#CCN3CCS(=O)(=O)CC3)cnc2[C@H](C)OC)c2c3cc(ccc31)-c1csc(n1)C[C@H](NC(=O)[C@H]1[C@H](C)[C@@H]1C)C(=O)N1CCC[C@H](N1)C(=O)OCC(C)(C)C2` (atropisomer, axis not shown; (Ra)) [Compound Z838, (1r,2R,3S)—N-((6^3S,4S,Z)—(Ra)-1^2-(5-(3-(1,1-dioxidothiomorpholino)prop-1-yn-1-yl)-2-((S)-1-methoxyethyl)pyridin-3-yl)-1^1-ethyl-10,10-dimethyl-5,7-dioxo-6^1,6^2,6^3,6^4,6^5,6^6-hexahydro-1^1H-8-oxa-2(4,2)-thiazola-1(5,3)-indola-6(1,3)-pyridazinacycloundecaphane-4-yl)-2,3-dimethylcyclopropane-1-carboxamide] yielded a half-life at 1 µM in data set [1] (NADPH, 37° C., 0/30/60 min) of 25 min. The same compound came in with a CLint scaled at 1 µM in data set [1] (liver intrinsic clearance rate) of 64.2 mL/min/kg. Also, the IC50 in data set [2] (Homo sapiens, ASPC1, 3 h) is 0.08 nM.
